{
  "source": "DBAASP",
  "assay_in_all_cases": "≥ marks a high value that may be exact or a test limit, other limits are often not marked, values filed in µg/mL are converted to µM",
  "key": {"[1]": {"test_system": "Acinetobacter baumannii"}, "[2]": {"test_system": "Enterococcus faecalis"}, "[3]": {"test_system": "Enterococcus gallinarum"}, "[4]": {"test_system": "Pseudomonas aeruginosa"}, "[5]": {"test_system": "Raoultella terrigena"}, "[6]": {"test_system": "Bacillus subtilis ATCC 9372"}, "[7]": {"test_system": "Escherichia coli ATCC 8739"}, "[8]": {"test_system": "Proteus vulgaris NCTC 4635"}, "[9]": {"test_system": "Pseudomonas aeruginosa ATCC 9027"}, "[10]": {"test_system": "Staphylococcus aureus ATCC 6538"}, "[11]": {"test_system": "Candida albicans NCPF 1467"}, "[12]": {"test_system": "Enterococcus faecalis ATCC 29212"}, "[13]": {"test_system": "Escherichia coli NCTC 10418"}, "[14]": {"test_system": "Staphylococcus aureus ATCC 33591"}, "[15]": {"test_system": "Staphylococcus aureus NCTC 10788"}, "[16]": {"test_system": "Staphylococcus aureus S015"}, "[17]": {"test_system": "Escherichia coli ATCC 25922"}, "[18]": {"test_system": "Klebsiella pneumoniae"}, "[19]": {"test_system": "Nocardia asteroides"}, "[20]": {"test_system": "Serratia marcescens"}, "[21]": {"test_system": "Staphylococcus aureus ATCC 2592"}, "[22]": {"test_system": "Candida albicans ATCC 90028"}, "[23]": {"test_system": "Enterobacter cloacae HNTCC 53001"}, "[24]": {"test_system": "Klebsiella pneumoniae KK3 9904"}, "[25]": {"test_system": "Proteus mirabilis ATCC 25933"}, "[26]": {"test_system": "Pseudomonas aeruginosa ATCC 27853"}, "[27]": {"test_system": "Staphylococcus aureus NCTC 8325"}, "[28]": {"test_system": "Staphylococcus epidermidis RP62A"}, "[29]": {"test_system": "Aggregatibacter actinomycetemcomitans ATCC 29522"}, "[30]": {"test_system": "Candida albicans ATCC 18804"}, "[31]": {"test_system": "Aspergillus flavus KCTC 7375"}, "[32]": {"test_system": "Bacillus subtilis KCTC 3068"}, "[33]": {"test_system": "Candida albicans KCTC 7121"}, "[34]": {"test_system": "Escherichia coli KCTC 1682"}, "[35]": {"test_system": "Fusarium oxysporum KCTC 6084"}, "[36]": {"test_system": "Pseudomonas aeruginosa KCTC 1637"}, "[37]": {"test_system": "Salmonella typhimurium KCTC 1926"}, "[38]": {"test_system": "Serratia marcescens KCTC 1299"}, "[39]": {"test_system": "Staphylococcus aureus KCTC 1621"}, "[40]": {"test_system": "Streptococcus pyogenes KCTC 3096"}, "[41]": {"test_system": "Trichosporon beigelii KCTC 7251"}},
  "data": [
    {"smiles": "CSCC[C@H](NC(=O)[C@H](C)NC(C)=O)C(=O)N[C@H](C(=O)NCC(=O)N[C@H](C(=O)O)[C@@H](C)O)C(C)C", "note": "[AMVGT]", "values": [
      {"measurement": "MIC", "setting": "[1]", "value": 26.3, "unit": "µM"},
      {"measurement": "MIC", "setting": "[2]", "value": "≥ 53.8", "unit": "µM"},
      {"measurement": "MIC", "setting": "[3]", "value": 26.3, "unit": "µM"},
      {"measurement": "MIC", "setting": "[4]", "value": 26.3, "unit": "µM"},
      {"measurement": "MIC", "setting": "[5]", "value": 26.3, "unit": "µM"}
    ]},
    {"smiles": "CC[C@H](C)[C@H](NC(=O)[C@@H](NC(=O)[C@H](CO)NC(=O)[C@H](C)NC(=O)[C@@H](NC(=O)[C@H](CCCCN)NC(=O)[C@H](CCCCN)NC(=O)[C@@H](NC(=O)[C@@H](NC(=O)[C@@H](N)CC(=O)O)C(C)C)[C@@H](C)CC)C(C)C)C(C)C)C(=O)NCC(=O)O", "note": "[DVIKKVASVIG]", "values": [
      {"measurement": "MIC", "setting": "[6]", "value": "≥ 908", "unit": "µM"},
      {"measurement": "MIC", "setting": "[7]", "value": "≥ 908", "unit": "µM"},
      {"measurement": "MIC", "setting": "[8]", "value": "≥ 908", "unit": "µM"},
      {"measurement": "MIC", "setting": "[9]", "value": "> 908", "unit": "µM"},
      {"measurement": "MIC", "setting": "[10]", "value": "> 908", "unit": "µM"}
    ]},
    {"smiles": "CC[C@H](C)[C@H](NC(=O)[C@H](CC(C)C)NC(=O)CNC(=O)[C@@H]1CCCN1C(=O)[C@@H](NC(=O)[C@H](CCSC)NC(=O)CNC(=O)[C@H](CC(C)C)NC(=O)[C@@H](N)Cc1ccccc1)[C@@H](C)CC)C(=O)NCC(=O)NCC(=O)N[C@@H](CC(C)C)C(=O)N[C@H](C(=O)N[C@@H](CO)C(=O)N[C@@H](C)C(=O)N[C@@H](Cc1ccccc1)C(=O)N[C@@H](CCCCN)C(=O)O)[C@@H](C)CC", "note": "[FLGMIPGLIGGLISAFK]", "values": [
      {"measurement": "MIC", "setting": "[11]", "value": 10, "unit": "µM"},
      {"measurement": "MIC", "setting": "[12]", "value": 39.9, "unit": "µM"},
      {"measurement": "MIC", "setting": "[13]", "value": "≥ 320", "unit": "µM"},
      {"measurement": "MIC", "setting": "[14]", "value": 9.98, "unit": "µM"},
      {"measurement": "MIC", "setting": "[15]", "value": 5, "unit": "µM"},
      {"measurement": "MIC", "setting": "[16]", "value": 9.98, "unit": "µM"}
    ]},
    {"smiles": "CC[C@H](C)[C@@H]1NC(=O)[C@H](CCCCN)NC(=O)[C@@H](NC(=O)[C@H](CCSC)NC(=O)[C@@H](NC(=O)[C@H](CC(C)C)NC(=O)[C@@H]2CCCN2C(=O)[C@H](CC(C)C)NC(=O)[C@@H](NC(=O)[C@@H](N)Cc2ccccc2)C(C)C)C(C)C)CSSC[C@@H](C(=O)O)NC(=O)[C@H](CCCCN)NC(=O)[C@H](CCCN=C(N)N)NC(=O)[C@H](CC(C)C)NC1=O", "note": "[FVLPLVMCKILRKC]", "values": [
      {"measurement": "MIC", "setting": "[17]", "value": "> 60.1", "unit": "µM"},
      {"measurement": "MIC", "setting": "[18]", "value": "> 60.1", "unit": "µM"},
      {"measurement": "MIC", "setting": "[19]", "value": 5.64, "unit": "µM"},
      {"measurement": "MIC", "setting": "[20]", "value": "≥ 60.1", "unit": "µM"},
      {"measurement": "MIC", "setting": "[21]", "value": 5.64, "unit": "µM"}
    ]},
    {"smiles": "CSCC[C@H](NC(=O)[C@@H](NC(=O)[C@H](CCCCN)NC(=O)[C@H](CO)NC(=O)[C@H](C)NC(=O)[C@H](CC(C)C)NC(=O)[C@H](CO)NC(=O)CNC(=O)[C@@H](NC(=O)[C@@H](NC(=O)[C@H](CC(N)=O)NC(=O)[C@H](CCCCN)NC(=O)[C@H](C)NC(=O)[C@H](C)NC(=O)CNC(=O)[C@H](CCCCN)NC(=O)[C@H](CC(C)C)NC(=O)[C@@H](NC(=O)[C@H](CC(=O)O)NC(=O)[C@H](CC(C)C)NC(=O)[C@H](CC(C)C)NC(=O)CN)[C@@H](C)O)C(C)C)C(C)C)C(C)C)C(=O)N[C@@H](CCC(=O)O)C(=O)N[C@@H](CCCCN)C(=O)N[C@@H](CC(C)C)C(N)=O", "note": "[GLLDTLKGAAKNVVGSLASKVMEKL]", "values": [
      {"measurement": "MIC", "setting": "[22]", "value": "≥ 200", "unit": "µM"},
      {"measurement": "MIC", "setting": "[23]", "value": "≥ 50", "unit": "µM"},
      {"measurement": "MIC", "setting": "[12]", "value": 200, "unit": "µM"},
      {"measurement": "MIC", "setting": "[17]", "value": 25, "unit": "µM"},
      {"measurement": "MIC", "setting": "[24]", "value": "≥ 100", "unit": "µM"},
      {"measurement": "MIC", "setting": "[25]", "value": "≥ 200", "unit": "µM"},
      {"measurement": "MIC", "setting": "[26]", "value": 100, "unit": "µM"},
      {"measurement": "MIC", "setting": "[27]", "value": "≥ 200", "unit": "µM"},
      {"measurement": "MIC", "setting": "[28]", "value": "≥ 100", "unit": "µM"}
    ]},
    {"smiles": "CC[C@H](C)[C@H](NC(=O)[C@H](CC(=O)O)NC(=O)[C@H](CCCCN)NC(=O)[C@H](C)NC(=O)[C@H](C)NC(=O)CNC(=O)[C@H](CCCCN)NC(=O)[C@H](CC(C)C)NC(=O)[C@@H](NC(=O)[C@H](CC(=O)O)NC(=O)[C@@H](NC(=O)[C@@H](NC(=O)CN)C(C)C)C(C)C)[C@@H](C)CC)C(=O)N[C@@H](C)C(=O)NCC(=O)N[C@@H](Cc1cnc[nH]1)C(=O)N[C@@H](CC(C)C)C(=O)N[C@@H](C)C(=O)N[C@@H](CO)C(=O)N[C@@H](CCCCN)C(=O)N[C@H](C(=O)N[C@@H](CCSC)C(N)=O)C(C)C", "note": "[GVVDILKGAAKDIAGHLASKVM]", "values": [
      {"measurement": "MIC", "setting": "[29]", "value": "≥ 222", "unit": "µM"},
      {"measurement": "MIC", "setting": "[30]", "value": "≥ 234", "unit": "µM"},
      {"measurement": "MIC", "setting": "[17]", "value": 114, "unit": "µM"}
    ]},
    {"smiles": "CC[C@H](C)[C@H](NC(=O)[C@H](CCCCN)NC(=O)[C@H](CCCCN)NC(=O)[C@H](Cc1ccccc1)NC(=O)[C@H](CC(C)C)NC(=O)[C@H](CCCCN)NC(=O)[C@H](Cc1c[nH]c2ccccc12)NC(=O)[C@H](CCCCN)NC(=O)[C@@H]1CCCN1C(=O)[C@H](Cc1ccccc1)NC(=O)[C@H](CCCCN)NC(=O)[C@H](CCCCN)NC(=O)[C@H](C)NC(=O)[C@H](CC(C)C)NC(=O)[C@H](Cc1cnc[nH]1)NC(=O)[C@H](CC(C)C)NC(=O)[C@H](Cc1ccccc1)NC(=O)[C@@H](N)CCCCN)C(N)=O", "note": "[KFLHLAKKFPKWKLFKKI]", "values": [
      {"measurement": "MIC", "setting": "[31]", "value": 25, "unit": "µM"},
      {"measurement": "MIC", "setting": "[32]", "value": 0.78, "unit": "µM"},
      {"measurement": "MIC", "setting": "[33]", "value": 12.5, "unit": "µM"},
      {"measurement": "MIC", "setting": "[34]", "value": 3.13, "unit": "µM"},
      {"measurement": "MIC", "setting": "[35]", "value": 25, "unit": "µM"},
      {"measurement": "MIC", "setting": "[36]", "value": 1.56, "unit": "µM"},
      {"measurement": "MIC", "setting": "[37]", "value": 1.56, "unit": "µM"},
      {"measurement": "MIC", "setting": "[38]", "value": 3.13, "unit": "µM"},
      {"measurement": "MIC", "setting": "[39]", "value": 1.56, "unit": "µM"},
      {"measurement": "MIC", "setting": "[40]", "value": 3.13, "unit": "µM"},
      {"measurement": "MIC", "setting": "[41]", "value": 12.5, "unit": "µM"}
    ]}
  ]
}
